Measurements from US20070213291A1, “Therapeutically useful synthetic oligonucleotides” (priority 1999, published 2007).
“And” between values parts separate entries of the source, which are not always exact repeats. Identical values can stand only once.

Key:
Assay type in all cases: cell-based
[1] = tested on: PC-3 human prostate cancer cells; assay: Inhibition of PC-3 cell proliferation (MTT); settings: 100 μg/ml, 48 h, 5×10^5 cells/ml
Method in brief: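 PC-3 cells (5×10^5 cells/ml) exposed 48 h at 37 °C to 3- and 6-base GT oligonucleotide sequences at 100 μg/ml versus untreated control. Proliferation read by MTT reduction at 570 nm.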

[2] = tested on: A20 murine B leukemia cells; assay: Inhibition of A20 cell proliferation (MTT); settings: 100 μg/ml, 48 h
Experimental: (§1) Cells were seeded in 6 (1 ml/well), 24 (0.5 ml/well) or 96 (0.1 ml/well) well flat-bottom microplates and were maintained at 37° C. in a 5% CO2 atmosphere. Unless stated otherwise, 2.5×10^5 cells/ml were incubated with 0 μg/ml (control) and 100 μg/ml (treated) of 2 to 45 base sequences containing A, C, G and T for 48 h.
(§2) Cell proliferation was measured using dimethylthiazol-diphenyl-tetrazolium (MTT) reduction (Mosman et al. J. Immunol. Methods 65:55, 1983). MTT was measured at a wavelength of 570 nm using a multiplate spectrophotometer reader (ELX800, Bio-TEK Instruments Inc., Winooski, Vt.).
A20 murine leukemia B cells are a suspension tumor model. A20 murine leukemia B cells were incubated with 6 base GT sequences (Table 19).

[3] = tested on: LNCaP human prostate cancer cells; assay: Inhibition of LNCaP cell proliferation (MTT); settings: 100 μg/ml, 48 h, 5×10^5 cells/ml
Method in brief: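 Cells (2.5×10^5 or 5×10^5 cells/ml) exposed to 100 μg/ml of 2–45 base A/C/G/T sequences, including 6-base GT sequences, versus untreated control, 48 h at 37 °C, 5% CO2. Proliferation read by MTT reduction at 570 nm.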

[4] = tested on: MCF-7 human breast cancer cells; assay: Inhibition of MCF-7 cell proliferation (MTT); settings: for % INHIBITION of MCF-7 human breast cancer cell proliferation: 100 μg/ml, 48 h, 5×10^5 cells/ml
Method in brief: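 Cells at 2.5×10^5 cells/ml (GT 3- and 6-base series at 5×10^5 cells/ml) treated with 100 μg/ml of 2-45-base oligonucleotide sequences versus untreated control for 48 h at 37 °C, 5% CO2. Proliferation read by MTT reduction at 570 nm.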

[5] = tested on: Jurkat human leukemia T cells; assay: Inhibition of Jurkat human leukemia T cell proliferation (MTT reduction); settings: for % INHIBITION of Jurkat proliferation at suboptimal concentration: 5.0 μg/ml of each 6 base sequence, alone or two together; for % INHIBITION of Jurkat human leukemia T cell proliferation: 100 μg/ml sequence, 48 h, 2.5×10^5 cells/ml
Method in brief: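 Jurkat cells at 2.5×10^5 cells/ml exposed to 100 μg/ml of 2–45-base A/C/G/T sequences (0 μg/ml control) for 48 h, 37° C, 5% CO2. Viability by MTT reduction read at 570 nm.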

[6] = tested on: Jurkat human leukemia T cells; assay: NuMA release into supernatant (ELISA); settings: for % NuMA released (treated vs untreated cells): 50 μM sequence
Method in brief: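 Jurkat T cells (1×10^6/ml) exposed to GT-containing oligonucleotide sequences, at 50 μM in some experiments, for 24 h in some experiments. NuMA released into the supernatant quantified by commercial ELISA.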

[7] = tested on: Jurkat human leukemia T cells; assay: Apoptosis by phosphatidylserine/annexin V-FITC flow cytometry; settings: 50 μM sequence
Method in brief: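 Jurkat cells were exposed to 3–7-base oligonucleotides (GT, ACGT, AG, GG, AGT, CGT sequences) at 50 μM. Separately, 6-base GT and complementary AC sequences, alone or hybridized 1:1 (10 min, 65 °C), were applied for 24 h. Phosphatidylserine exposure was quantified by flow cytometry with FITC-annexin V.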

[8] = tested on: Jurkat human leukemia T cells; assay: Cell cycle stage in Jurkat cells (propidium iodide flow cytometry); settings: 24 h
Method in brief: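 Exponentially growing Jurkat cells were exposed for 24 h to 2–45-base A/C/G/T oligonucleotides, or at 1×10^6 cells/ml to 6-base GT and AC strands, alone (heated 10 min, 65 °C) or hybridized 1:1. Detergent-, trypsin-, RNase- and spermine-treated nuclei were propidium iodide-stained and scored for G0/G1, early/mid/late S and G2/M by doublet-discriminating flow cytometry.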

[9] = tested on: HL-60 human promyelocytic leukemia cells; assay: Inhibition of HL-60 cell proliferation (MTT); settings: 100 μg/ml, 48 h
Experimental: as §1, §2
HL-60 promyelocytic leukemia cells are a p53 mutated human suspension tumor model. HL-60 cells were incubated with 6 base GT sequences (Table 6).

[10] = 5-fluorouracil 0.1 μg/ml, alone or with sequence at 1.0 μg/ml
[11] = 5-fluorouracil 1.0 μg/ml, alone or with sequence at 1.0 μg/ml
[12] = 5-fluorouracil 10.0 μg/ml, alone or with sequence at 1.0 μg/ml
[13] = sequence at 1.0 μg/ml, 5-fluorouracil 0.0 μg/ml
[14] = Jurkat 1×10^6 cells/ml, sequences heated 10 minutes at 65° C.

Sequence: GGGTGG [SEQ ID NO:25]
- % INHIBITION of PC-3 human prostate cancer cell proliferation [1]: 38%
- % INHIBITION of A20 murine B leukemia cell proliferation [2]: 11%
- % INHIBITION of LNCaP human prostate cancer cell proliferation [3]: 18%
- % INHIBITION of MCF-7 human breast cancer cell proliferation [4]: 41%
- % INHIBITION of MCF-7 proliferation, 5-Fluorouracil 0.1 μg/ml [4, 10]: 24%
- % INHIBITION of MCF-7 proliferation, 5-Fluorouracil 1.0 μg/ml [4, 11]: 36%
- % INHIBITION of MCF-7 proliferation, 5-Fluorouracil 10.0 μg/ml [4, 12]: 33%
- potentiation of antineoplastic effect of 5-fluorouracil on MCF-7 cell proliferation ([4]; sequence 1.0 μg/ml, 0.1 μg/ml 5-fluorouracil): potentiated
- potentiation of antineoplastic effect of tamoxifen on MCF-7 cell proliferation ([4]; sequence 1.0 μg/ml, 0.1 μg/ml tamoxifen): potentiated
- % INHIBITION of MCF-7 proliferation, 5-Fluorouracil 0.0 μg/ml [4, 13]: 6%
- % INHIBITION of MCF-7 proliferation, Tamoxifen 0.0 μg/ml ([4]; sequence at 1.0 μg/ml, tamoxifen 0.0 μg/ml): 6%
- % INHIBITION of MCF-7 proliferation, Tamoxifen 0.1 μg/ml ([4]; tamoxifen 0.1 μg/ml, alone or with sequence at 1.0 μg/ml): 21%
- % INHIBITION of MCF-7 proliferation, Tamoxifen 1.0 μg/ml ([4]; tamoxifen 1.0 μg/ml, alone or with sequence at 1.0 μg/ml): 24%
- % INHIBITION of MCF-7 proliferation, Tamoxifen 10.0 μg/ml ([4]; tamoxifen 10.0 μg/ml, alone or with sequence at 1.0 μg/ml): 31%
- % INHIBITION of Jurkat proliferation at suboptimal concentration [5]: 5%
- % INHIBITION of Jurkat human leukemia T cell proliferation [5]: 60%
- % INHIBITION of Jurkat proliferation, 5-Fluorouracil 0.1 μg/ml [5, 10]: 10%
- % INHIBITION of Jurkat proliferation, 5-Fluorouracil 1.0 μg/ml [5, 11]: 21%
- % INHIBITION of Jurkat proliferation, 5-Fluorouracil 10.0 μg/ml [5, 12]: 40%
- relative potency versus AGT SEQ ID NO:49 ([5]; Jurkat proliferation, PHARM/PCS-4 Software): 3.4 times
- % INHIBITION of Jurkat proliferation, Cisplatin 0.1 μg/ml ([5]; cisplatin 0.1 μg/ml, alone or with sequence at 1.0 μg/ml): 14%
- % INHIBITION of Jurkat proliferation, Cisplatin 1.0 μg/ml ([5]; cisplatin 1.0 μg/ml, alone or with sequence at 1.0 μg/ml): 38%
- % INHIBITION of Jurkat proliferation, Cisplatin 10.0 μg/ml ([5]; cisplatin 10.0 μg/ml, alone or with sequence at 1.0 μg/ml): 76%
- potentiation of antineoplastic effect of 5-fluorouracil on Jurkat T cell proliferation ([5]; sequence 1.0 μg/ml, 0.1 and 1.0 μg/ml 5-fluorouracil): potentiated
- potentiation of antineoplastic effect of cisplatin on Jurkat T cell proliferation ([5]; sequence 1.0 μg/ml, 0.1 and 1.0 μg/ml cisplatin): potentiated
- % INHIBITION of Jurkat proliferation, 5-Fluorouracil 0.0 μg/ml [5, 13]: 0%
- % INHIBITION of Jurkat proliferation, Cisplatin 0.0 μg/ml ([5]; sequence at 1.0 μg/ml, cisplatin 0.0 μg/ml): 0%
- % NUMA RELEASED ([6]; Jurkat 1×10^6/ml): 269%
- % NuMA released (treated vs untreated cells) ([6]; Jurkat): 69%
- % NuMA released (untreated vs treated cells) ([6]; Jurkat, 24 h, sequences heated 10 minutes at 65° C.): 69%
- % of cells in apoptosis (positive for PS/A-V staining) [7]: 27%
- % cells in phase: G0/G1 [8, 14]: 28.0%
- % cells in phase: G2/M [8, 14]: 0.9%
- % cells in phase: SE [8, 14]: 45.8%
- % cells in phase: SL [8, 14]: 11.3%
- % cells in phase: SM [8, 14]: 14.0%
- Arrest (cell cycle) [8, 14]: induced arrest at the end of the SE phase of the cell cycle
- % of cells in phase: G0/G1 ([8]; Jurkat, 100 μg/ml): 28.5%
- % of cells in phase: G2/M ([8]; Jurkat, 100 μg/ml): 0.0%
- % of cells in phase: SE ([8]; Jurkat, 100 μg/ml): 46.3%
- % of cells in phase: SL ([8]; Jurkat, 100 μg/ml): 10.7%
- % of cells in phase: SM ([8]; Jurkat, 100 μg/ml): 14.6%
- Arrest (cell cycle) ([8]; Jurkat, 100 μg/ml): End SE
- % INHIBITION of HL-60 human promyelocytic leukemia cell proliferation [9]: 35%

Sequence: GTGTGT [SEQ ID NO:10]
- % INHIBITION of PC-3 human prostate cancer cell proliferation [1]: 37%
- % INHIBITION of A20 murine B leukemia cell proliferation [2]: 9%
- % INHIBITION of LNCaP human prostate cancer cell proliferation [3]: −4%
- % INHIBITION of MCF-7 human breast cancer cell proliferation [4]: 31%
- % INHIBITION of Jurkat proliferation at suboptimal concentration [5]: 2%
- % INHIBITION of Jurkat human leukemia T cell proliferation [5]: 44% and 48%
- % NuMA released (treated vs untreated cells) ([6]; Jurkat): 90%
- % of cells in apoptosis (positive for PS/A-V staining) [7]: 33%
- % of cells in phase: G0/G1 ([8]; Jurkat, 100 μg/ml): 30.8%
- % of cells in phase: G2/M ([8]; Jurkat, 100 μg/ml): 0.3%
- % of cells in phase: SE ([8]; Jurkat, 100 μg/ml): 41.9%
- % of cells in phase: SL ([8]; Jurkat, 100 μg/ml): 10.2%
- % of cells in phase: SM ([8]; Jurkat, 100 μg/ml): 16.8%
- Arrest (cell cycle) ([8]; Jurkat, 100 μg/ml): End SE
- % INHIBITION of HL-60 human promyelocytic leukemia cell proliferation [9]: 13%

Sequence: TTGTTT [SEQ ID NO:26]
- % INHIBITION of PC-3 human prostate cancer cell proliferation [1]: 18%
- % INHIBITION of A20 murine B leukemia cell proliferation [2]: 15%
- % INHIBITION of LNCaP human prostate cancer cell proliferation [3]: 22%
- % INHIBITION of MCF-7 human breast cancer cell proliferation [4]: 20%
- % INHIBITION of Jurkat proliferation at suboptimal concentration [5]: −2%
- % INHIBITION of Jurkat human leukemia T cell proliferation [5]: 34%
- % NuMA released (treated vs untreated cells) ([6]; Jurkat): 23%
- % of cells in apoptosis (positive for PS/A-V staining) [7]: 14%
- % of cells in phase: G0/G1 ([8]; Jurkat, 100 μg/ml): 32.6%
- % of cells in phase: G2/M ([8]; Jurkat, 100 μg/ml): 32.4%
- % of cells in phase: SE ([8]; Jurkat, 100 μg/ml): 11.5%
- % of cells in phase: SL ([8]; Jurkat, 100 μg/ml): 10.7%
- % of cells in phase: SM ([8]; Jurkat, 100 μg/ml): 12.8%
- Arrest (cell cycle) ([8]; Jurkat, 100 μg/ml): END G2/M
- % INHIBITION of HL-60 human promyelocytic leukemia cell proliferation [9]: 16%
